Earlier results as cited in patent US8846083B2, “Method for the diffusion of molecules which are insoluble in an aqueous medium and composition using said method” (priority 2004, dated 2014).

Key:
[1] = administered via the digestive tract
[2] = administered via the digestive tract; remark: listed apart in the source

| Structure (SMILES) | duration of pharmacological effects [1] | time at which the maximum concentration of the active ingredient in the blood is reached [2] [min] |
| --- | --- | --- |
| CC(C)Cc1ccc(C(C)C(=O)O)cc1 (stereo not shown) [ibuprofen] | approximately 2 hour | 90 |
| CC(C(=O)O)c1cccc(C(=O)c2ccccc2)c1 (stereo not shown) [ketoprofen] | 1.5 hour | 75 |
